Experimental data taken from PubChem BioAssay AID651760 (The Scripps Research Institute Molecular Screening Center, 2012).
The source made the active and inactive calls. No rule for the calls is given here.

molecular target: Hepatocyte nuclear factor 4-alpha (Homo sapiens) (UniProt P41235); experiment: IC50 for blocking HNF4 dimer formation – biochemical, luminescence, late stage, counter-screen for ABHD5-PLIN5 interaction inhibitor project, dose response (AID 651760); conditions: HNF4 dimerization, luminescence biochemical assay
Sequence (P41235 whole entry, looked up): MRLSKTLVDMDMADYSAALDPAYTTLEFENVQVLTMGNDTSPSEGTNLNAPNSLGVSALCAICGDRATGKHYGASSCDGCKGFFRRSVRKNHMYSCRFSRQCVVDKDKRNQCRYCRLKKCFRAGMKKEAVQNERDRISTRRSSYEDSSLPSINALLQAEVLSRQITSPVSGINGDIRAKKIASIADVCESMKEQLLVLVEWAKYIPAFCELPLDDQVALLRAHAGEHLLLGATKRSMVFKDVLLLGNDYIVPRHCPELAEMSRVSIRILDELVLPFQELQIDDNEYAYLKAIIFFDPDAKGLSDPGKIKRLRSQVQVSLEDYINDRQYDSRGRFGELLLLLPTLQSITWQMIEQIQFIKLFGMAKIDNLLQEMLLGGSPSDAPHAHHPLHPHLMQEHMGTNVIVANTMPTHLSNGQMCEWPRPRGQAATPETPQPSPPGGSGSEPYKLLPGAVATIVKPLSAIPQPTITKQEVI

Structure (SMILES) | IC50
CCN(CC)CCC(C)OC(c1ccccc1)c1ccccc1 (stereo not given) | 5.57 µM
Cc1cc(C)c(NC(=O)CN2CCN3CCCC3C2)c(C)c1 (stereo not given) | > 39.8 µM (inactive)
O=c1[nH]c(C2CCN(S(=O)(=O)c3ccc(S(=O)(=O)NC4CC4)cc3)CC2)nc2c1nnn2Cc1ccc(F)cc1 | > 39.8 µM (inactive)
CN(C)CCCN(C(=O)CCc1ccccc1)c1nc2ccc(Br)cc2s1 | > 39.8 µM (inactive)
CC(=O)Nc1ccc(S(=O)(=O)N2c3ccc(F)cc3CCC2C)cc1 (stereo not given) | > 39.8 µM (inactive)
CN1CCC(=C2c3ccccc3CC(=O)c3sccc32)CC1 | > 39.8 µM (inactive)
COc1ccc(C)c2sc(N(CCN(C)C)C(=O)/C=C/c3cccs3)nc12 | inactive
FC(F)(F)c1cccc(NC(=S)N(CCCN2CCCC2)Cc2cccn2Cc2ccc(Cl)cc2)c1 | > 39.8 µM (inactive)
CC(=O)Cc1cc(O)c2ccccc2c1OC(=O)c1ccc(Br)cc1 | inactive
COc1ccc(NC(=S)N(CCCN2CCCC2)Cc2cccn2Cc2ccc(Cl)cc2)cc1Cl | > 39.8 µM (inactive)
COc1cc2c(cc1OC)C(C)N(CCc1ccc(Cl)cc1)CC2 (stereo not given) | > 39.8 µM (inactive)
CC(=O)Cc1cc(O)c2ccccc2c1OC(=O)c1ccccc1 | 8.21 µM
CC1CCN(S(=O)(=O)c2ccc(NC(=O)Cc3cccs3)cc2)CC1 | > 39.8 µM (inactive)
CCCCNC(=O)Nc1ccc2c(c1)N(C)C(=O)c1ccccc1S2 | > 39.8 µM (inactive)
Cc1nc2c(o1)CCc1ccccc1C2N1CCN(C)CC1 (stereo not given) | > 39.8 µM (inactive)
CC1=CC(C)(C)Nc2ccc(OC(=O)C(C)N3C(=O)c4ccccc4C3=O)cc21 (stereo not given) | inactive
O=C(C[n+]1cccc(CNC(=O)c2ccc(OC(F)F)cc2)c1)Nc1cccc(C(F)(F)F)c1 | > 39.8 µM (inactive)
CN(C)CCOC1(Cc2ccc(F)cc2)CCC(C(C)(C)C)CC1 (stereo not given) | > 39.8 µM (inactive)
NC(=NCCCCCCN=C(N)/N=C(\N)Nc1ccc(Cl)cc1)/N=C(\N)Nc1ccc(Cl)cc1 | inactive
CN(C)CCN(Cc1ccco1)c1ccccn1 | > 39.8 µM (inactive)

Structure (SMILES) | IC50
CCN(CC)CCOc1ccc(/C(=C(/Cl)c2ccccc2)c2ccccc2)cc1 | 5.09 µM
CCOC(=O)c1c(NC(C)=O)sc2c1CCC(C=O)=C2Sc1ccccc1 | inactive
COc1ccccc1-c1cc(C(=O)NC2CCN(C)CC2)c2ccc(Cl)c(C)c2n1 | > 39.8 µM (inactive)
CCOC(=O)c1c(NC(=O)/C=C/C(=O)O)sc(C)c1-c1ccc(C(C)(C)C)cc1 | 8.97 µM
CCN(CC)CCNC(=O)c1ccc(NC(=O)c2cn(-c3ccccc3)nc2-c2cccs2)cc1 | > 39.8 µM (inactive)
COc1cc(OC)cc(C(=O)NC(=S)N(Cc2ccccc2)C(C)C)c1 | > 39.8 µM (inactive)
O=C(/C(=C/O)N=Nc1ccc(Cl)cc1)c1ccncc1 | inactive
CCCNC(=O)Nc1ccc2c(c1)N(C)C(=O)c1ccccc1S2 | > 39.8 µM (inactive)
CCN(CC)CCN(CC(=O)Nc1c(C)cc(C)cc1C)C(=O)c1ccccc1 | > 39.8 µM (inactive)
COc1cc(C)c2sc3ccccc3c(=O)c2c1NCCN(C)C | > 39.8 µM (inactive)
C=C[C@]1(C)C[C@@H](OC(=O)CSCCN(CC)CC)[C@]2(C)C(C)CC[C@]3(CCC(=O)[C@H]32)[C@@H](C)[C@@H]1O (stereo not given in full) | > 39.8 µM (inactive)
CCCCOC(=O)Nc1cc(C(=O)OC)ccc1C(=O)OC | > 39.8 µM (inactive)
CCOc1cc(N)c(Cl)cc1C(=O)NCC1CN(Cc2ccc(F)cc2)CCO1 (stereo not given) | 4.18 µM
CC(C)c1ccc(N2C=Nc3ccc(C(C)C)cc3C2)cc1 | 2.8 µM
CN(C)CCCN(C(=O)CCc1ccccc1)c1nc2ccc(Cl)cc2s1 | > 39.8 µM (inactive)
CCN(CC)CCOCCOC(=O)C1(c2ccccc2)CCCC1 | 6.03 µM
COCCN(CCOC)c1nc(N)c2c(N)nc3c(c2c1C#N)CC(=O)N3Cc1ccc(Cl)cc1 | > 39.8 µM (inactive)
CC1CCN(S(=O)(=O)c2ccc(NC(=O)Cc3ccccc3)cc2)CC1 | > 39.8 µM (inactive)
Cc1ccc2nc3cc([N+](=O)[O-])cc([N+](=O)[O-])c3cc2c1 | inactive
O=c1[nH]c(C2CCN(S(=O)(=O)c3ccc(F)cc3)CC2)nc2c1nnn2Cc1ccc2c(c1)OCCO2 | > 39.8 µM (inactive)
